Assay results published in paper PMC5823406, “Vehicle development, pharmacokinetics and toxicity of the anti-invasive agent 4-fluoro-3’,4’,5’-trimethoxychalcone in rodents” (PLoS ONE, 2018).

Assay: Solubility in vehicles, laser nephelometry
Type: physicochemical
Method: The solubility of C16 was tested at 10 and 30 mg/mL for the indicated vehicles using laser nephelometry in 96-well plates (BMG LabTech NEPHELOstar microplate reader, BMG LabTech, USA). Solutions were prepared using solubilizing techniques including sonication, heating up to 37 °C and vortex. Solubility data was categorized as soluble (result ≤ +15 of blank), slightly soluble (result between +15 and +25 of blank) or not soluble (result > +25 of blank).
C16 has low aqueous solubility, which limits the choice of preclinical formulations for in vivo studies. In this work, thirteen vehicles were evaluated for their applicability in single-dose studies (Table 1). For commonly used systems (entries a-e) visual determination of solubility was conducted, while for the more complex systems solubility was assessed by laser nephelometry.

With `COc1cc(C(=O)/C=C/c2ccc(F)cc2)cc(OC)c1OC` [C16, 4-fluoro-3’,4’,5’-trimethoxychalcone] the “Solubility of C16 in vehicle: Result” value (10% Cremophor EL / 10% EtOH, 10 mg/mL) was “Insoluble ^b”, the “Solubility of C16 in vehicle: Result” value (10% Cremophor EL / 10% EtOH, 30 mg/mL) was “Insoluble ^b” and the “Solubility of C16 in vehicle: Result” value (10% DMA / 10% EtOH / 20% PG, 10 mg/mL) was “Insoluble ^b”. For the same molecule, the “Solubility of C16 in vehicle: Result” value (10% DMA / 10% EtOH / 20% PG, 30 mg/mL) was “Insoluble ^b”, the “Solubility of C16 in vehicle: Result” value (10% Dimethylacetamide (DMA) / 90% PEG 600, 10 mg/mL) was “Soluble ^b” and the “Solubility of C16 in vehicle: Result” value (10% Dimethylacetamide (DMA) / 90% PEG 600, 30 mg/mL) was “Soluble ^b”. For the same molecule, the “Solubility of C16 in vehicle: Result” value (10% Solutol HS-15 / 90% PEG 600, 10 mg/mL) was “Soluble ^b”, the “Solubility of C16 in vehicle: Result” value (10% Solutol HS-15 / 90% PEG 600, 30 mg/mL) was “Soluble ^b” and the “Solubility of C16 in vehicle: Result” value (10%DMA / 20%PG / 40% PEG 400, 10 mg/mL) was “Insoluble ^b”. The “Solubility of C16 in vehicle: Result” value (10%DMA / 20%PG / 40% PEG 400, 30 mg/mL) was “Insoluble ^b”, the “Solubility of C16 in vehicle: Result” value (20% PEG 400 / 10% Cremophor EL, 10 mg/mL) was “Insoluble ^b” and the “Solubility of C16 in vehicle: Result” value (20% PEG 400 / 10% Cremophor EL, 30 mg/mL) was “Insoluble ^b”. For the same molecule, the “Solubility of C16 in vehicle: Result” value (40% PEG 400 / 10% EtOH, 10 mg/mL) was “Insoluble ^b”, the “Solubility of C16 in vehicle: Result” value (40% PEG 400 / 10% EtOH, 30 mg/mL) was “Insoluble ^b” and the “Solubility of C16 in vehicle: Result” value (100% Corn oil, 10 mg/mL) was “Insoluble ^b”. For the same molecule, the “Solubility of C16 in vehicle: Result” value (100% Corn oil, 30 mg/mL) was “Insoluble ^b”.
